Ends that are not written are not given here.

Data on one sequence can be found in PMC11161652, “ASXLs binding to the PHD2/3 fingers of MLL4 provides a mechanism for the recruitment of BAP1 to active enhancers” (Nature Communications, 2024).

Experiment [1] has as its target T1, MLL4PHD2/3 L256K (Homo sapiens, UniProt O14686, L256K).
T1 construct: MLL4 (aa 227-324); GST (N, cleaved yes); made in house; host or cells: E. coli BL21-CodonPlus
Briefly: NMR titration binding, L256K MLL4PHD2/3. The following applies: 1H,15N HSQC, 0.1 mM protein, 20 mM Tris pH 6.8, 298 K. How it is done:
(§1) All constructs were expressed in BL21-CodonPlus competent cells.
(§2) For NMR titration experiments, ^1H,^15N HSQC spectra of 0.1 mM uniformly ^15N-labeled WT or mutated MLL4PHD2/3, MLL3PHD2/3 or MLL3PHD4 were recorded while WT or mutated ASXL2 (aa 650-670, 650-664, 656-670) and ASXL3 (aa 1047-1067) peptides (synthesized by SynPeptide) or MLL3PHD2/3 were added stepwise. All experiments were carried out in 20 mM Tris buffer (pH 6.8), 150 mM NaCl, and 3 mM DTT, containing 7% D2O. The dissociation constants (Kds) were determined by a nonlinear least-squares analysis in GraphPad Prism using the equation:1 △δ=△δmaxL+P+Kd−L+P+Kd^2−4PL/2P where [L] is concentration of the peptide, [P] is concentration of the protein, Δδ is the observed chemical shift change, and Δδmax is the normalized chemical shift change at saturation. Normalized chemical shift changes were calculated using the equation Δδ=△δH^2+△sn/5^2 (2), where Δδ is the change in chemical shift in parts per million (ppm).

In experiment [2] the target is T2, MLL4PHD2/3 D257K/D285K (Homo sapiens, UniProt O14686, D257K/D285K).
T2 construct: MLL4 (aa 227-324); GST (N, cleaved yes); made in house; host or cells: E. coli BL21-CodonPlus
The experiment can be described thus: NMR titration binding, D257K/D285K MLL4PHD2/3. The conditions noted are these: 1H,15N HSQC titration, 0.1 mM protein, 20 mM Tris pH 6.8, 150 mM NaCl, 298 K. How it is done:
as §1, §2

Experiment [3] addresses T3, MLL4PHD2/3 D285K (Homo sapiens, UniProt O14686, D285K).
T3 construct: MLL4 (aa 227-324); GST (N, cleaved yes); made in house; host or cells: E. coli BL21-CodonPlus
The experiment can be described thus: NMR titration binding, D285K MLL4PHD2/3. The following applies: 1H,15N HSQC titration, 0.1 mM protein, 20 mM Tris pH 6.8, 150 mM NaCl, 3 mM DTT, 7% D2O, 298 K, mean ± SD, n = 3. How it is done: as §1
Normalized chemical shift changes were calculated using the equation Δδ=△δH^2+△sn/5^2 (2), where Δδ is the change in chemical shift in parts per million (ppm).

In experiment [4] the target is T4, MLL4PHD2/3 V290K (Homo sapiens, UniProt O14686, V290K).
T4 construct: MLL4 (aa 227-324); GST (N, cleaved yes); made in house; host or cells: E. coli BL21-CodonPlus
Briefly: NMR titration binding, V290K MLL4PHD2/3. The following applies: 1H,15N HSQC titration, 0.1 mM protein, 20 mM Tris pH 6.8, 150 mM NaCl, 298 K. On the procedure: as §1, §2

Experiment [5] has as its target T5, MLL4PHD2/3 K274E (Homo sapiens, UniProt O14686, K274E).
T5 construct: MLL4 (aa 227-324); GST (N, cleaved yes); made in house; host or cells: E. coli BL21-CodonPlus
The experiment can be described thus: NMR titration binding, K274E MLL4PHD2/3. The conditions noted are these: 1H,15N HSQC titration, 0.1 mM protein, 20 mM Tris pH 6.8, 150 mM NaCl, 298 K. How it is done:
as §1, §2

Experiment [6] concerns the target T6, MLL3PHD2/3 D372K/D400K (Homo sapiens, UniProt Q8NEZ4, D372K/D400K).
T6 construct: human MLL3 (aa 342-439); GST (N, cleaved yes); made in house; host or cells: E. coli BL21-CodonPlus
Briefly: NMR titration binding, D372K/D400K MLL3PHD2/3. The conditions noted are these: 1H,15N HSQC titration, 0.1 mM protein, 20 mM Tris pH 6.8, 150 mM NaCl, 298 K. On the procedure: as §1, §2

T1 sequence (O14686 227-324 L256K): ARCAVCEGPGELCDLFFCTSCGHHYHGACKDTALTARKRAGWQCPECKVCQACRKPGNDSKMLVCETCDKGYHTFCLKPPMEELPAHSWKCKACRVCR
T2 sequence (O14686 227-324 D257K/D285K): as the sequence (O14686 227-324 L256K) above, with K30L, D31K, D59K counted along it
T6 sequence (Q8NEZ4 342-439 D372K/D400K): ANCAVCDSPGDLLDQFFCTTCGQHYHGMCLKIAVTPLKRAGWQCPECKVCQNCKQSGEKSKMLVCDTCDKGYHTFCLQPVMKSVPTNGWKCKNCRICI
T4 sequence (O14686 227-324 V290K): as the sequence (O14686 227-324 L256K) above, with K30L, V64K counted along it
T3 sequence (O14686 227-324 D285K): as the sequence (O14686 227-324 L256K) above, with K30L, D59K counted along it
T5 sequence (O14686 227-324 K274E): as the sequence (O14686 227-324 L256K) above, with K30L, K48E counted along it

In general, Kd refers to the constant that tells how readily two partners part at equilibrium. As for NRTGARTLADIKAKAQLVKAQ [ASXL2 650-670], the dissociation constant Kd result in experiment [1] is “unfolded”; in experiment [2], “no binding”; in experiment [3], 1700 µM; in experiment [4], “no binding”; in experiment [5], “no binding”; in experiment [6], “no binding”.
